Our source for the EC50 values is article PMC4663167 (Insect biochemistry and molecular biology, 2015).

In the assay the target is PhumOR2 (odorant receptor) (Pediculus humanus, UniProt A0ACM8QMA3). The assay is classed as cell-based.
Turning to `CC(O)c1ccccc1` (stereo not drawn) [1-phenylethanol], the half-maximal effective concentration (EC50) (commonly the midpoint of the concentration-response curve) was 1300 µM.
With `Cc1cccc(O)c1C` [2,3-dimethylphenol] the figure was 103 µM; with `CC1CCC(O)CC1` (stereo not drawn) [4-methylcyclohexanol], 120 µM.
